GI50 and TGI data for five molecules are collected here from PubChem BioAssay (NCI).

The structures appear in SMILES notation.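 In this assay, cells in 96-well plates receive the compound at five concentrations for 48 hours. Endpoints are linearly interpolated between the surrounding concentrations. Abbreviation: GI50, concentration required for 50% inhibition of growth. TGI is the concentration that stops growth completely.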

Some test systems named below: BT-549 breast; HCT-15 colon; HS 578T breast; IGROV1 ovarian; MOLT-4 leukemia; NCI-H23 lung; OVCAR-4 ovarian; OVCAR-8 ovarian; SR leukemia; UO-31 renal.
What all share (assay): growth of human tumour cells (NCI), 48 h

Regarding `CC1=C(C(=O)Nc2ccc(Cl)c(Cl)c2)C(c2cccc(Cl)c2)NC(=O)N1` (stereo not given), the GI50 with BT-549 breast was 6.42 µM; with HCT-15 colon, 9.06 µM; in the assay on HS 578T breast it was 9.68 µM; in the assay on IGROV1 ovarian, 7.51 µM; in the assay with MOLT-4 leukemia, 4.99 µM; in the assay on NCI-H23 lung, 12.7 µM. The GI50 with OVCAR-4 ovarian is 14.1 µM; in the assay with OVCAR-8 ovarian, 14.8 µM; with SR leukemia it was 22.3 µM; with UO-31 renal, 8.2 µM. Further, the TGI with BT-549 breast was 13.4 µM; in the assay on HCT-15 colon it was 19.2 µM; with HS 578T breast, 22.6 µM; in the assay with IGROV1 ovarian, 21.6 µM; in the assay on MOLT-4 leukemia it was more than 23.3 µM; with NCI-H23 lung, 28.5 µM. For the same molecule, the TGI with OVCAR-4 ovarian is more than 50 µM; in the assay on OVCAR-8 ovarian it was more than 37.7 µM; with SR leukemia it was more than 50 µM; with UO-31 renal it was 15.9 µM.
In the case of `CNC(=O)c1ccc(N2C(=S)N(c3ccc(C#N)c(C(F)(F)F)c3)C(=O)C2(C)C)cc1F`, the GI50 with BT-549 breast is 22.3 µM; in the assay on HCT-15 colon it was 33.2 µM; in the assay on HS 578T breast, more than 43.1 µM; with IGROV1 ovarian, 40.3 µM; in the assay on MOLT-4 leukemia, 33.1 µM; with NCI-H23 lung, 30.2 µM. Moreover, the GI50 is 31.8 µM in the assay on OVCAR-4 ovarian, 50.2 µM with OVCAR-8 ovarian, 17.9 µM in the assay with SR leukemia and 8.83 µM with UO-31 renal. In addition, the TGI in the assay on BT-549 breast is more than 73.4 µM; in the assay on HCT-15 colon it was more than 89.3 µM; in the assay on HS 578T breast, more than 86.8 µM; in the assay on IGROV1 ovarian, more than 100 µM; in the assay with MOLT-4 leukemia it was more than 100 µM; with NCI-H23 lung, more than 89.6 µM. For the same molecule, the TGI is more than 100 µM with OVCAR-4 ovarian, more than 100 µM in the assay with OVCAR-8 ovarian, more than 100 µM in the assay with SR leukemia and 34.9 µM with UO-31 renal.
Take `COc1cc(N2CCC(N3CCN(C)CC3)CC2)ccc1Nc1ncnc(Nc2ccccc2S(=O)(=O)C(C)C)n1`: the GI50 in the assay with BT-549 breast is 18.4 µM; with HCT-15 colon it was 3.5 µM; in the assay on HS 578T breast, 4.2 µM; in the assay on IGROV1 ovarian, 2.64 µM; with MOLT-4 leukemia it was 5.07 µM; in the assay with NCI-H23 lung, 8.1 µM. For the same molecule, the GI50 in the assay on OVCAR-4 ovarian is 8.93 µM; in the assay on OVCAR-8 ovarian, 3.52 µM; in the assay with SR leukemia it was 0.104 µM; with UO-31 renal, 2.62 µM. The TGI was 44.7 µM in the assay with BT-549 breast; more than 46.5 µM in the assay on HCT-15 colon; 54.5 µM in the assay with HS 578T breast; 7.5 µM with IGROV1 ovarian; more than 64.8 µM with MOLT-4 leukemia; 36.6 µM with NCI-H23 lung. Besides, the TGI in the assay on OVCAR-4 ovarian came to 42.2 µM; with OVCAR-8 ovarian, 21.3 µM; in the assay on SR leukemia it was 18.7 µM; in the assay on UO-31 renal, 12.6 µM.
As for `COc1ccc(NC([Se])=NC23CC4CC(CC(C4)C2)C3)cc1`, the GI50 in the assay on BT-549 breast is 0.874 µM; in the assay on HCT-15 colon, 1.57 µM; in the assay on HS 578T breast, 2.08 µM; in the assay on IGROV1 ovarian it was 1.64 µM; in the assay with MOLT-4 leukemia, 0.611 µM; in the assay with NCI-H23 lung it was 0.456 µM. The GI50 in the assay with OVCAR-4 ovarian is 0.42 µM; in the assay on OVCAR-8 ovarian, 0.645 µM; in the assay with SR leukemia it was 1.67 µM; in the assay with UO-31 renal, 1.74 µM. The TGI with BT-549 breast came to 2.32 µM; with HCT-15 colon it was 11.1 µM; in the assay on HS 578T breast, 7.89 µM; in the assay on IGROV1 ovarian, 7.7 µM; in the assay with MOLT-4 leukemia, 5.12 µM; with NCI-H23 lung, 3 µM. Moreover, the TGI is 3.46 µM in the assay with OVCAR-4 ovarian, 3.71 µM in the assay on OVCAR-8 ovarian, more than 100 µM with SR leukemia and 4.11 µM with UO-31 renal.
For `O=c1ccs[nH]1`, the TGI in the assay on BT-549 breast worked out at 40.3 µM; in the assay on HCT-15 colon, 33.8 µM; in the assay on HS 578T breast, 49.7 µM; with IGROV1 ovarian, 66.5 µM; in the assay with MOLT-4 leukemia, 25 µM; in the assay on NCI-H23 lung, 43.7 µM. For the same molecule, the TGI worked out at 32.5 µM in the assay on OVCAR-4 ovarian, 32.9 µM with OVCAR-8 ovarian, 16.4 µM in the assay with SR leukemia and 23 µM in the assay on UO-31 renal.
